Tests used:
[1] = target: BCL-2 (Homo sapiens (Human), UniProt P10415); test: BCL-2 TR-FRET Assay (primary PPI inhibition); assay type: binding; settings: 60 min incubation, read-out: BCL2 IC50
Experimental: Example A. BCL-2 TR-FRET Assay (BPS Bioscience, #50222)
(§1) The following assay concentrations and times were used: 3 ng of BCL-2, 5 μL of 1:100 anti-His Tb-labeled donor, 5 μL of 1:100 Dye-labeled acceptor, 5 µL of 1:40 BCL-2 Peptide Ligand, and 2 μL of 200× test compound, with 60 min incubation time (final concentration of DMSO 0.5%). The results of the assay were read using a plate reader with the following parameters: TR FRET, 340ex/620 and 665em; 60 usec Delay; and 500 usec integration.
(§2) Instrumentation: CLARIOstar Plus (BMG LABTECH); Biomek FX for liquid handling (Beckman Coulter).

[2] = target: BCL-xL (Homo sapiens (Human), UniProt Q07817); test: BCL-xL TR-FRET Assay (primary PPI inhibition); assay type: binding; settings: 60 min incubation, read-out: BCLxL IC50
BCL-xL, sequence (Q07817 whole entry): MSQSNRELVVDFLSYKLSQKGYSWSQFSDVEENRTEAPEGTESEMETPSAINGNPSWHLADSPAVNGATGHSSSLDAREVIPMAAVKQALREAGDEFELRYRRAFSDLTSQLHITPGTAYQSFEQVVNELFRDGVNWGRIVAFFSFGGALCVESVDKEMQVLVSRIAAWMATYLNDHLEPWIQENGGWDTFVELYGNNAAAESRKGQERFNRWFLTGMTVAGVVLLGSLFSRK
Experimental: Example B. BCL-xL TR-FRET Assay (BPS Bioscience, #50223)
as §1, with “used: 10.5” for “used: 3”, “of BCL-xL,” for “of BCL-2,”, “of 1:120” for “of 1:100”, “5 μL” for “5 µL”, “of 1:96 BCL-xL” for “of 1:40 BCL-2”, “Ligand,” for “Ligand, and”
as §2

[3] = tested on: RS4-11 cells; test: Cell viability assay (CellTiter-Glo), RS4-11; assay type: cell-based; settings: Homo sapiens, RS4-11, 72 h, 3 days of incubation
Experimental: (§3) Example D. Cell Viability Assays (Cell lines HEK293, RS4-11, MOLT-4)
(§4) Cells were seeded at a density of 4000 cells per well in the 384-well clear bottom plate (Greiner Cat #781090) to the 45 μL total volume of either DMEM (PanEco, Cat #C420, for HEK293) or RPMI (PanEco, Cat #C330, for other cell lines) with 10% FBS(HyClone Cat #SV30160.03). Prior to adding compounds, the HEK293 cells were allowed to adhere overnight at 37° C. and 5% CO2. The 500× compounds solutions in DMSO(Sigma Cat #D2650) were dispersed into a 384-well compound plate (Diamond Well Plate, Axigen, Cat #P-384-120 SQ-C—S) including only DMSO control. The 1 μL aliquots of the 500× compounds from the compound plate were added to 49 μL of culture medium in the Dilution plate (Diamond Well Plate, Axigen, Cat #P-384-120 SQ-C—S), mixed and then the 5 μL aliquts of the 10× compound solutions were transferred to cells followed by centrifugation at 100 g for 1 min. Final DMSO concentration was 0.2%. After 3 days of incubation the 10 μL aliquots of CellTiter-Glo (Promega, CAT #G7572) were added to the cells, plate was centrifuged at 100 g for 1 min and the luminescence was measured on the CLARIOstar Plus (BMG LABTECH) instrument.
as §2

[4] = Cell viability assay (CellTiter-Glo), HEK293; assay type: cell-based; settings: human, HEK293 cells, 3 days of incubation
Experimental: as §3, §4, §2

[5] = tested on: MOLT-4 cells; test: Cell viability assay (CellTiter-Glo), MOLT-4; assay type: cell-based; settings: Homo sapiens, 72 h, 3 days of incubation
Experimental: as §3, §4, §2

[6] = tested on: caspase-3 and -7 activities in RS4-11 cells; test: Caspase-3/7 activation (Caspase-Glo 3/7) in RS4-11 cells; assay type: cell-based; settings: Homo sapiens, 3.5 h, read-out: Cas-3/7 EC50
Experimental: Example E. Caspase-3/7 Activation
Assay Principle: The Caspase-Glo 3/7 Assay is homogeneous, luminescent assay that measures caspase-3 and -7 activities. The assay provides a luminogenic caspase-3/7 substrate, which contains the tetrapeptide sequence DEVD, in a reagent optimized for caspase activity.
Assay Procedure: Incubate RS4-11 (ATCC, CRL-1873) cells in the 384-well white plate (Corning, #3570) with varying concentrations of test compounds for 3.5 h in a humidified incubator at 37° C. and 5% CO2 […]. Add 15 μL of the Caspase-Glo (Promega, #8212) reagent to each well and to incubate the plate for 30 min at rt. Read on the CLARIOstar Plus (BMG LABTECH) instrument.
as §2

BCL-2, sequence (P10415 whole entry): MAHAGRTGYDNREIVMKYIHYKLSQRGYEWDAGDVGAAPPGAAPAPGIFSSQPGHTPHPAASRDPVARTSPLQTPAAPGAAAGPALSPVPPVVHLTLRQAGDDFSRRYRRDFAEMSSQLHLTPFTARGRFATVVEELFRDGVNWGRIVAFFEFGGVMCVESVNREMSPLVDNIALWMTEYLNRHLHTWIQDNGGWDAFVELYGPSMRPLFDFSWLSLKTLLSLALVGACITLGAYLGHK

COc1cccc(CN(C(=O)c2cc(-c3cc(Cl)c(OC(F)F)cc3C(=O)N3Cc4ccccc4C[C@H]3CN3CCOCC3)n(C)c2C)c2ccc(Cl)cc2)c1C [Compound 32, 5-[5-chloro-4-(difluoromethoxy)-2-[(3S)-3-(morpholinomethyl)-3,4-dihydro-1H-isoquinoline-2-carbonyl]phenyl]-N-(4-chlorophenyl)-N-[(3-methoxy-2-methyl-phenyl)methyl]-1,2-dimethyl-pyrrole-3-carboxamide]
IC50 [1]: > 0.05 µM
IC50 [2]: 2 to 5 µM
CC50 [3]: > 0.2 µM
CC50 at 3 days [4]: > 25 µM
CC50 [5]: ≤ 5 µM
EC50 [6]: > 0.5 µM

COc1cccc(CN(C(=O)c2cc(-c3cc(C(F)F)c(Cl)cc3C(=O)N3Cc4ccccc4C[C@H]3CN3CCOCC3)n(C)c2C)c2ccc(Cl)cc2)c1C [Compound 39, 5-[4-chloro-5-(difluoromethyl)-2-[(3S)-3-(morpholinomethyl)-3,4-dihydro-1H-isoquinoline-2-carbonyl]phenyl]-N-(4-chlorophenyl)-N-[(3-methoxy-2-methyl-phenyl)methyl]-1,2-dimethyl-pyrrole-3-carboxamide]
IC50 [1]: > 0.05 µM
IC50 [2]: 2 to 5 µM
CC50 [3]: > 0.2 µM
CC50 at 3 days [4]: > 25 µM
CC50 [5]: ≤ 5 µM
EC50 [6]: > 0.5 µM

Cc1c(C(=O)N(Cc2ccccc2C#N)c2ccc(O)cc2)cc(-c2cc(F)c(F)cc2C(=O)N2Cc3ccccc3C[C@H]2CN2CCOCC2)n1C [Compound 53, N-[(2-cyanophenyl)methyl]-5-[4,5-difluoro-2-[(3S)-3-(morpholinomethyl)-3,4-dihydro-1H-isoquinoline-2-carbonyl]phenyl]-N-(4-hydroxyphenyl)-1,2-dimethyl-pyrrole-3-carboxamide]
IC50 [1]: 0.01 to 0.05 µM
IC50 [2]: 2 to 5 µM
CC50 [3]: 0.1 to 0.2 µM
CC50 at 3 days [4]: > 25 µM
CC50 [5]: 5 to 10 µM
EC50 [6]: 0.2 to 0.5 µM

COc1ccccc1CN(C(=O)c1cc(-c2cc(C#N)ccc2C(=O)N2Cc3ccccc3C[C@H]2CN2CCOCC2)n(C)c1C)c1ccc(O)cc1 [Compound 55, 5-[5-cyano-2-[(3S)-3-(morpholinomethyl)-3,4-dihydro-1H-isoquinoline-2-carbonyl]phenyl]-N-(4-hydroxyphenyl)-N-[(2-methoxyphenyl)methyl]-1,2-dimethyl-pyrrole-3-carboxamide]
IC50 [1]: 0.005 to 0.01 µM
IC50 [2]: ≤ 2 µM
CC50 [3]: 0.1 to 0.2 µM
CC50 at 3 days [4]: > 25 µM
CC50 [5]: ≤ 5 µM
EC50 [6]: 0.2 to 0.5 µM

COc1cc(-c2cc(C(=O)N(Cc3ccccc3OC)c3ccc(Cl)cc3)c(C)n2C)c(C(=O)N2Cc3ccccc3C[C@H]2CN2CCOCC2)cc1C#N [Compound 56, N-(4-chlorophenyl)-5-[4-cyano-5-methoxy-2-[(3S)-3-(morpholinomethyl)-3,4-dihydro-1H-isoquinoline-2-carbonyl]phenyl]-N-[(2-methoxyphenyl)methyl]-1,2-dimethyl-pyrrole-3-carboxamide]
IC50 [1]: > 0.05 µM
IC50 [2]: 2 to 5 µM
CC50 [3]: > 0.2 µM
CC50 at 3 days [4]: ≤ 10 µM
CC50 [5]: ≤ 5 µM
EC50 [6]: > 0.5 µM

COc1cccc(CN(C(=O)c2cc(-c3cc(C#N)ccc3C(=O)N3Cc4ccccc4C[C@H]3CN3CCOCC3)n(C)c2C)c2ccc(O)cc2)c1C [Compound 57, 5-[5-cyano-2-[(3S)-3-(morpholinomethyl)-3,4-dihydro-1H-isoquinoline-2-carbonyl]phenyl]-N-(4-hydroxyphenyl)-N-[(3-methoxy-2-methyl-phenyl)methyl]-1,2-dimethyl-pyrrole-3-carboxamide]
IC50 [1]: 0.005 to 0.01 µM
IC50 [2]: 2 to 5 µM
CC50 [3]: ≤ 0.1 µM
CC50 at 3 days [4]: > 25 µM
CC50 [5]: ≤ 5 µM
EC50 [6]: ≤ 0.2 µM

COc1cc(-c2cc(C(=O)N(Cc3cccc(OC)c3C)c3ccc(O)cc3)c(C)n2C)c(C(=O)N2Cc3ccccc3C[C@H]2CN2CCOCC2)cc1C#N [Compound 58, 5-[4-cyano-5-methoxy-2-[(3S)-3-(morpholinomethyl)-3,4-dihydro-1H-isoquinoline-2-carbonyl]phenyl]-N-(4-hydroxyphenyl)-N-[(3-methoxy-2-methyl-phenyl)methyl]-1,2-dimethyl-pyrrole-3-carboxamide]
IC50 [1]: > 0.05 µM
IC50 [2]: 2 to 5 µM
CC50 [3]: > 0.2 µM
CC50 at 3 days [4]: > 25 µM
CC50 [5]: ≤ 5 µM
EC50 [6]: > 0.5 µM

COc1cccc(CN(C(=O)c2cc(-c3cc([N+](=O)[O-])ccc3C(=O)N3Cc4ccccc4C[C@H]3CN3CCOCC3)n(C)c2C)c2ccc(O)cc2)c1C [Compound 61, N-(4-hydroxyphenyl)-N-[(3-methoxy-2-methyl-phenyl)methyl]-1,2-dimethyl-5-[2-[(3S)-3-(morpholinomethyl)-3,4-dihydro-1H-isoquinoline-2-carbonyl]-5-nitro-phenyl]pyrrole-3-carboxamide]
IC50 [1]: ≤ 0.005 µM
IC50 [2]: > 5 µM
CC50 [3]: ≤ 0.1 µM
CC50 at 3 days [4]: > 25 µM
CC50 [5]: ≤ 5 µM
EC50 [6]: 0.2 to 0.5 µM

Cc1c(C(=O)N(Cc2ccccc2C#N)c2ccc(O)cc2)cc(-c2cc([N+](=O)[O-])ccc2C(=O)N2Cc3ccccc3C[C@H]2CN2CCOCC2)n1C [Compound 62, N-[(2-cyanophenyl)methyl]-N-(4-hydroxyphenyl)-1,2-dimethyl-5-[2-[(3S)-3-(morpholinomethyl)-3,4-dihydro-1H-isoquinoline-2-carbonyl]-5-nitro-phenyl]pyrrole-3-carboxamide]
IC50 [1]: ≤ 0.005 µM
IC50 [2]: > 5 µM
CC50 [3]: ≤ 0.1 µM
CC50 at 3 days [4]: > 25 µM
CC50 [5]: ≤ 5 µM
EC50 [6]: ≤ 0.2 µM

COc1cccc(CN(C(=O)c2cc(-c3cc(C(N)=O)ccc3C(=O)N3Cc4ccccc4C[C@H]3CN3CCOCC3)n(C)c2C)c2ccc(O)cc2)c1C [Compound 64, 5-[5-carbamoyl-2-[(3S)-3-(morpholinomethyl)-3,4-dihydro-1H-isoquinoline-2-carbonyl]phenyl]-N-(4-hydroxyphenyl)-N-[(3-methoxy-2-methyl-phenyl)methyl]-1,2-dimethyl-pyrrole-3-carboxamide]
IC50 [1]: ≤ 0.005 µM
IC50 [2]: > 5 µM
CC50 [3]: ≤ 0.1 µM
CC50 at 3 days [4]: > 25 µM
CC50 [5]: > 10 µM
EC50 [6]: > 0.5 µM

COc1ccccc1CN(C(=O)c1cc(-c2cc(Cl)ccc2C(=O)N2Cc3ccccc3C[C@H]2CN2CCOCC2)n(C)c1C)c1ccc2[nH]ncc2c1 [Compound 69, 5-[5-chloro-2-[(3S)-3-(morpholinomethyl)-3,4-dihydro-1H-isoquinoline-2-carbonyl]phenyl]-N-(1H-indazol-5-yl)-N-[(2-methoxyphenyl)methyl]-1,2-dimethyl-pyrrole-3-carboxamide]
IC50 [1]: 0.01 to 0.05 µM
IC50 [2]: > 5 µM
CC50 [3]: > 0.2 µM
CC50 at 3 days [4]: > 25 µM
CC50 [5]: > 10 µM
EC50 [6]: > 0.5 µM
